Data reported in patent US20230009626A1 (ICHNOS SCIENCES S.A., priority 2018, published 2023).

Target: HPK1 (MAP4K1) (Homo sapiens, UniProt Q92918)
Assay: FRET Assay for HPK1 (MAP4K1): one step binding assay, displacement of labeled tracer
Conditions: for inhibition at 1 µM: 1 μM compound; for inhibition at 1 µM / inhibition at 10 µM: FRET ratio 665/620, percent of control; for IC50: dose response curve, nonlinear regression; for inhibition at 10 µM: 10 μM compound
How it was run: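 TR-FRET tracer-displacement binding assay. GST-tagged HPK1 (10 nM) and Eu-anti-GST antibody (4 nM) were pre-incubated with compound on ice for 15 min in 50 mM HEPES pH 7.5, 10 mM MgCl2, 1 mM EGTA, 0.01% Brij-35 (3% DMSO final). Kinase Tracer 222 (20 nM) was then added for 1 h at room temperature. IC50 came from nonlinear regression of percent of control; percent inhibition was also given at 1.0 and 10.0 μM.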

HPK1 (MAP4K1), sequence (Q92918 whole entry): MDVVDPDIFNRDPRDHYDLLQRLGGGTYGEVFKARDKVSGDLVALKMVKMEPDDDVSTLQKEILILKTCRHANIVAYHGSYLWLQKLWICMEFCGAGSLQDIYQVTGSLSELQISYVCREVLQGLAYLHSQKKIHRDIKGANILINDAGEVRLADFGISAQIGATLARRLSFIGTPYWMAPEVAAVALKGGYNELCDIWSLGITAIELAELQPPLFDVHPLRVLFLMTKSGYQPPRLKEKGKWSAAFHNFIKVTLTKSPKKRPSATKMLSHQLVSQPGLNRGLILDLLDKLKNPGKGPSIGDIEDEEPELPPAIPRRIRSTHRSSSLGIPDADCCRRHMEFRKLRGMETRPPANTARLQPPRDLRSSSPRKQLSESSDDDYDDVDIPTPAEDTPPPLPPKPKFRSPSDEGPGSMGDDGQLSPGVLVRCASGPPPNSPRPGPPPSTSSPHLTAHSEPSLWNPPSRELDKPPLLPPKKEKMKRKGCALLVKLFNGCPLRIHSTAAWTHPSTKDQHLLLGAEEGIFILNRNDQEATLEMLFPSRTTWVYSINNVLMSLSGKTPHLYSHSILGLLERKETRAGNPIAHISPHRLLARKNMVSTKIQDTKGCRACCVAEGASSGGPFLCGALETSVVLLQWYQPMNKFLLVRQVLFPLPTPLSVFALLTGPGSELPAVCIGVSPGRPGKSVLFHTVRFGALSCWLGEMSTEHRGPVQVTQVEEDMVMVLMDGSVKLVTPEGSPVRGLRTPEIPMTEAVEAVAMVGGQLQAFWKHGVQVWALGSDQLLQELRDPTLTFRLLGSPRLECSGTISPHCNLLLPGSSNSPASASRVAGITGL

Row | inhibition at 1 µM | IC50 | inhibition at 10 µM | SMILES
1 | 70.8% | < 50 nM | – | C/C(Nc1cc(C)n(C)n1)=C1/C(=O)Nc2cnc(-c3cc(F)ccc3C)cc21 [Example 210, (Z)-3-(1-((1,5-Dimethyl-1H-pyrazol-3-yl)amino)ethylidene)-5-(5-fluoro-2-methylphenyl)-1H-pyrrolo[2,3-c]pyridin-2(3H)-one]
2 | 77.3% | < 50 nM | 81.5% | C/C(Nc1ncn(C)n1)=C1/C(=O)Nc2cnc(-c3cnccc3C)cc21 [Example 163, (Z)-3-(1-((1-Methyl-1H-1,2,4-triazol-3-yl)amino)ethylidene)-5-(4-methylpyridin-3-yl)-1H-pyrrolo[2,3-c]pyridin-2(3H)-one]
3 | 84.6% | < 50 nM | 87% | C/C(Nc1cnn(C)c1)=C1/C(=O)Nc2cnc(-c3cnccc3C)cc21 [Example 23, (Z)-3-(1-((1-methyl-1H-pyrazol-4-yl)amino)ethylidene)-5-(4-methylpyridin-3-yl)-1H-pyrrolo[2,3-c]pyridin-2(3H)-one]
4 | 74.3% | 100 to 500 nM | 87.6% | C/C(Nc1cnn(C(C)(C)C#N)c1)=C1/C(=O)Nc2cnc(-c3c(C)noc3C)cc21 [Example 88, (Z)-2-(4-((1-(5-(3,5-Dimethylisoxazol-4-yl)-2-oxo-1H-pyrrolo[2,3-c]pyridin-3(2H)-ylidene)ethyl)amino)-1H-pyrazol-1-yl)-2-methylpropanenitrile]
5 | 74.1% | < 50 nM | 76.2% | C/C(Nc1cnn(C(F)F)c1)=C1/C(=O)Nc2cnc(-c3cnccc3C)cc21 [Example 66, (Z)-3-(1-((1-(Difluoromethyl)-1H-pyrazol-4-yl)amino)ethylidene)-5-(4-methylpyridin-3-yl)-1H-pyrrolo[2,3-c]pyridin-2(3H)-one]
6 | 80.9% | < 50 nM | 94.1% | C/C(Nc1cnn(C2CCOCC2)c1)=C1/C(=O)Nc2cnc(-c3cnccc3C)cc21 [Example 57, (Z)-5-(4-Methylpyridin-3-yl)-3-(1-((1-(tetrahydro-2H-pyran-4-yl)-1H-pyrazol-4-yl)amino)ethylidene)-1H-pyrrolo[2,3-c]pyridin-2(3H)-one]
7 | 73.2% | < 50 nM | 73.9% | C/C(Nc1cc(C)n(C(F)F)n1)=C1/C(=O)Nc2cnc(-c3cnccc3C)cc21 [Example 185, (Z)-3-(1-((1-(Difluoromethyl)-5-methyl-1H-pyrazol-3-yl)amino)ethylidene)-5-(4-methylpyridin-3-yl)-1H-pyrrolo[2,3-c]pyridin-2(3H)-one]
8 | 79.6% | < 50 nM | 89.7% | COc1cccc(F)c1-c1cc2c(cn1)NC(=O)/C2=C(/C)Nc1ccc(N2CCNCC2)cn1 [Example 124, (Z)-5-(2-Fluoro-6-methoxyphenyl)-3-(1-((5-(piperazin-1-yl)pyridin-2-yl)amino)ethylidene)-1H-pyrrolo[2,3-c]pyridin-2(3H)-one]
9 | 86.7% | < 50 nM | 86.1% | C/C(Nc1cc(C(C)(C)O)n(C)n1)=C1/C(=O)Nc2cnc(-c3cnccc3C)cc21 [Example 150, (Z)-3-(1-((5-(2-Hydroxypropan-2-yl)-1-methyl-1H-pyrazol-3-yl)amino)ethylidene)-5-(4-methylpyridin-3-yl)-1H-pyrrolo[2,3-c]pyridin-2(3H)-one]
10 | 76.9% | < 50 nM | 79.4% | C/C(Nc1cc(C)n(C(C)C)n1)=C1/C(=O)Nc2cnc(-c3cnccc3C)cc21 [Example 211, (Z)-3-(1-((1-Isopropyl-5-methyl-1H-pyrazol-3-yl)amino)ethylidene)-5-(4-methylpyridin-3-yl)-1H-pyrrolo[2,3-c]pyridin-2(3H)-one]
11 | 74.3% | < 50 nM | 70.4% | C/C(Nc1cc(C2CC2)n(C)n1)=C1/C(=O)Nc2cnc(-c3cnccc3C)cc21 [Example 152, (Z)-3-(1-((5-Cyclopropyl-1-methyl-1H-pyrazol-3-yl)amino)ethylidene)-5-(4-methylpyridin-3-yl)-1H-pyrrolo[2,3-c]pyridin-2(3H)-one]
12 | 67% | – | 65.5% | C/C(Nc1cnn(CC(F)(F)F)c1)=C1/C(=O)Nc2cnc(-c3cnccc3C)cc21 [Example 69, (Z)-5-(4-Methylpyridin-3-yl)-3-(1-((1-(2,2,2-trifluoroethyl)-1H-pyrazol-4-yl)amino)ethylidene)-1H-pyrrolo[2,3-c]pyridin-2(3H)-one]
13 | 80.2% | < 50 nM | 88.7% | C/C(Nc1cc2n(n1)CCOC2)=C1/C(=O)Nc2cnc(-c3cnccc3C)cc21 [Example 146, (Z)-3-(1-((6,7-Dihydro-4H-pyrazolo[5,1-c][1,4]oxazin-2-yl)amino)ethylidene)-5-(4-methylpyridin-3-yl)-1H-pyrrolo[2,3-c]pyridin-2(3H)-one]
14 | 69.4% | < 50 nM | 66.6% | C/C(Nc1ccc(OC2CCN(C(=O)C3CC3)CC2)nc1)=C1/C(=O)Nc2cnc(-c3cnccc3C)cc21 [Example 177, (Z)-3-(1-((6-((1-(Cyclopropanecarbonyl)piperidin-4-yl)oxy)pyridin-3-yl)amino)ethylidene)-5-(4-methylpyridin-3-yl)-1H-pyrrolo[2,3-c]pyridin-2(3H)-one]
15 | 75.4% | < 50 nM | 62.3% | C/C(Nc1cnn(CC[C@H](C)O)c1)=C1/C(=O)Nc2cnc(-c3cnccc3C)cc21 [Example 176, (S,Z)-3-(1-((1-(3-Hydroxybutyl)-1H-pyrazol-4-yl)amino)ethylidene)-5-(4-methylpyridin-3-yl)-1H-pyrrolo[2,3-c]pyridin-2(3H)-one]
16 | 69% | 100 to 500 nM | 82.5% | C/C(Nc1ccn(C)n1)=C1/C(=O)Nc2cnc(-c3cncc(F)c3C)cc21 [Example 154, (Z)-5-(5-Fluoro-4-methylpyridin-3-yl)-3-(1-((1-methyl-1H-pyrazol-3-yl)amino)ethylidene)-1H-pyrrolo[2,3-c]pyridin-2(3H)-one]
17 | 70.1% | 50 to 100 nM | 78.6% | C/C(Nc1ccn(C(C)C)n1)=C1/C(=O)Nc2cnc(-c3cnccc3C)cc21 [Example 99, (Z)-3-(1-((1-Isopropyl-1H-pyrazol-3-yl)amino)ethylidene)-5-(4-methylpyridin-3-yl)-1H-pyrrolo[2,3-c]pyridin-2(3H)-one]
18 | 74.4% | < 50 nM | 74.3% | C/C(Nc1ccn(CCC(C)(C)O)n1)=C1/C(=O)Nc2cnc(-c3cnccc3C)cc21 [Example 111]
19 | 25.1% | – | 61.1% | C/C(Nc1cc(C)n(CC[C@H](C)O)n1)=C1/C(=O)Nc2cnc(-c3cnccc3C)cc21 [Example 195, (S,Z)-3-(1-((1-(3-Hydroxybutyl)-5-methyl-1H-pyrazol-3-yl)amino)ethylidene)-5-(4-methylpyridin-3-yl)-1H-pyrrolo[2,3-c]pyridin-2(3H)-one]
20 | 81% | 100 to 500 nM | 80.9% | C/C(Nc1cc(C)nn1C)=C1/C(=O)Nc2cnc(-c3cnccc3C)cc21 [Example 132, (Z)-3-(1-((1,3-Dimethyl-1H-pyrazol-5-yl)amino)ethylidene)-5-(4-methylpyridin-3-yl)-1H-pyrrolo[2,3-c]pyridin-2(3H)-one]
21 | 88.4% | < 50 nM | 96.3% | COc1cccc(F)c1-c1cc2c(cn1)NC(=O)/C2=C(/C)Nc1cnn(C2COC2)c1 [Example 27, (Z)-5-(2-Fluoro-6-methoxyphenyl)-3-(1-((1-(oxetan-3-yl)-1H-pyrazol-4-yl)amino)ethylidene)-1H-pyrrolo[2,3-c]pyridin-2(3H)-one]
22 | 72.7% | < 50 nM | 75.6% | CC(=O)N1CCC(n2cc(N/C(C)=C3\C(=O)Nc4cnc(-c5cnccc5C)cc43)cn2)CC1 [Example 90, (Z)-3-(1-((1-(1-Acetylpiperidin-4-yl)-1H-pyrazol-4-yl)amino)ethylidene)-5-(4-methylpyridin-3-yl)-1H-pyrrolo[2,3-c]pyridin-2(3H)-one]
23 | 61% | 50 to 100 nM | 69% | C/C(Nc1ccn(C(C)(C)C#N)n1)=C1/C(=O)Nc2cnc(-c3ccccc3C)cc21 [Example 98, (Z)-2-Methyl-2-(3-((1-(2-oxo-5-(o-tolyl)-1H-pyrrolo[2,3-c]pyridin-3(2H)-ylidene)ethyl)amino)-1H-pyrazol-1-yl)propanenitrile]
24 | 75.1% | < 50 nM | 78% | CCS(=O)(=O)n1cc(N/C(C)=C2\C(=O)Nc3cnc(-c4cnccc4C)cc32)cn1 [Example 80, (Z)-3-(1-((1-(Ethylsulfonyl)-1H-pyrazol-4-yl)amino)ethylidene)-5-(4-methylpyridin-3-yl)-1H-pyrrolo[2,3-c]pyridin-2(3H)-one]
25 | 87.3% | < 50 nM | 92.6% | C/C(Nc1cc[nH]n1)=C1/C(=O)Nc2cnc(-c3cnccc3C)cc21 [Example 122, (Z)-3-(1-((1H-Pyrazol-3-yl)amino)ethylidene)-5-(4-methylpyridin-3-yl)-1H-pyrrolo[2,3-c]pyridin-2(3H)-one]
26 | 82.3% | < 50 nM | 78.9% | C/C(Nc1ccn(C[C@@H](C)O)n1)=C1/C(=O)Nc2cnc(-c3cnccc3C)cc21 [Example 136, (R,Z)-3-(1-((1-(2-Hydroxypropyl)-1H-pyrazol-3-yl)amino)ethylidene)-5-(4-methylpyridin-3-yl)-1H-pyrrolo[2,3-c]pyridin-2(3H)-one]
